{"source": "patent US20240216310A1", "about": "“Rapid Onset Therapeutic Anti-Depression Ketosis Enabled by D-BetaHydroxyButyric Acid Systems, Methods and Compounds for Psilocybin co-administration” (American Ketone Therapeutics LLC, priority 2022, published 2024)", "key": {"[1]": {"conditions": "Phase 2b clinical trial reported by Compass Pathways; cited from earlier work"}, "[2]": {"experiment": "Continuous Ketone Meter (CKM) monitoring of body ketone levels and deep sleep", "assay_type": "in vivo, human", "conditions": "5 grams consumed 45 minutes prior to bedtime", "description": "FIG. 11 is a graphical illustration of continuous monitoring of body ketone levels resulting in improved deep sleep time due to enhanced D-BHB levels according to the claimed invention. It is noteworthy that consumption of even small amounts of free D-BetaHydroxyButyric Acid can give rise to therapeutic ketosis levels as measured by Continuous Ketone Meter (CKM). […] While free D-BetaHydroxyButyric Acid is not a sedative, even small amounts can greatly improve deep sleep quantity and quality. It is an intended and foreseeable embodiment application to increase deep sleep with free D-BetaHydroxyButyric Acid with the aim of improving mental health and anti-depression resiliency."}, "[3]": {"experiment": "Preliminary data on anxiety and depression after D-BetaHydroxyButyric Acid administration", "assay_type": "in vivo, human", "conditions": "individuals with mild to moderate depression, given in the absence of a salt or ester", "description": "Moreover, dietary interventions for ketogenic diet treatment of bipolar disorder are yielding compelling results. The administration of the natural form of D-BetaHydroxyButyric Acid as an exogenous compound has rapid onset and direct benefits to brain bioenergenics. […] The claimed form of D-BetaHydroxyButyric Acid is bioidentical to the natural form of ketone generated endogenously and chemically distinguishable from the artificial ‘ketone salt’ and synthetic ‘ketone ester’. This application discloses two primary embodiments for the treatment of psychiatric depressive disorders: the use of bioidentical or ‘free D-BetaHydroxyButyric Acid’ alone as well as in combination with Psilocybin derived pharmaceuticals."}, "[4]": {"experiment": "Continuous glucose monitoring (Abbot Libre CGM) with carbohydrate challenge", "assay_type": "in vivo, human", "conditions": "10 g given 45 minutes before 50 g carbohydrate ingestion; compared with unsupplemented ingestion", "description": "FIG. 10 is a graphical illustration of continuous monitoring of body glucose levels. FIG. 10 depicts continuous glucose monitoring levels with carbohydrate challenge documented by Abbot Libre Continuous Glucose Monitoring (CGM) device. In this illustrative embodiment, glucose levels from a 50 g carbohydrate ingestion are depicted unaided by free D-BetaHydroxyButyric Acid on the left and repeated the following day with two 50 g carbohydrate ingestions accompanied by 10 g free D-BetaHydroxyButyric Acid administered 45 minutes before the carbohydrate insult. The data is noteworthy in that while the equivalent amount of identical (nacho chip platter) carbohydrates were consumed, the rapid glucose spike depicted in the unsupplemented ingestion is not found with 10 g D-BetaHydroxyButyric Acid accompaniment. […] As free D-BetaHydroxyButyric Acid can lower glucose while rapidly increasing ketone levels, it is believed that obtaining high ketones while lowering glucose will yield additional anti-depression benefits to high glucose sensitive individuals suffering from depression."}, "[5]": {"experiment": "Blood ketone levels by Abbott blood test strip after D-BHB oral drink", "assay_type": "in vivo, human", "description": "FIG. 8 is a graphical illustration of D-BHB exogenous ketone blood levels. FIG. 8 details rapid ketosis confirmed by Abbott blood test strip after 15 g D-BHB with palatability agent administered by oral drink. Blood ketone levels document rise from 0.1 mmol/L to 2.7 mmol/L. By supplementing an individual with exogenous ketone preparations incorporating the natural D-Beta-HydroxyButyric Acid (D-BHB) optionally combined with a palatability agent, internal body ketone levels rapidly rise when directly compared with non-supplementing individuals. The ketone body D-BHB is first and foremost an energy source, which is directly and preferentially metabolized by the brain. D-BHB is also active as a signaling mechanism and neuro-inflammation reduction agent, resulting in broad and beneficial mental health related benefits.\nFIG. 9 is a graphical illustration of D-BHB exogenous ketone blood levels. FIG. 9 details rapid ketosis within 45 minutes confirmed by Abbott blood test strip after 10 g D-BHB with palatability agent administered by oral drink. Blood ketone levels document rise from 0.2 mmol/L to 1.8 mmol/L and 0.6 mmol/L to 1.9 mmol/L in a variety of test subjects. FIG. 9 reinforces the fact that supplementation by utilizing free D only BetaHydroxyButyric Acid without ketone salt or ketone ester is a reliable, reproducible method and system for rapid ketone level increase for mental health protection and maintenance. While amounts of free D only BetaHydroxyButyric Acid taken for mental health anti-depression effects may vary, it is an anticipated preferred embodiment that levels are between 5 and 30 grams of D only BetaHydroxyButyric Acid taken as needed for optimum anti-depression effects. Alternate embodiments may include lower or higher amounts, however, experimental evidence has confirmed optimal administration in this range."}, "[6]": {"conditions": "previously known exogenous ketone compounds, from literature; cited from earlier work"}}}
{"smiles": "CN(C)CCc1c[nH]c2cccc(OP(=O)(O)O)c12", "note": "[Comp360]", "values": [{"measurement": "Outcome in treatment-resistant depression", "setting": "[1]", "value": "promising results"}]}
{"smiles": "CC(O)CC(=O)O", "note": "[D-BHB, D-Beta-HydroxyButyric Acid]", "values": [{"measurement": "Deep sleep quantity", "setting": "[2]", "value": "enhance the quantity of deep sleep obtained"}, {"measurement": "Increase in body ketone level", "setting": "[2]; CKM", "value": 1.5, "unit": "mmol/L"}, {"measurement": "Reduction of anxiety and depression", "setting": "[3]", "value": "often benefit"}, {"measurement": "Rapid glucose spike after carbohydrate ingestion", "setting": "[4]", "value": "not found"}, {"measurement": "Time to rapid ketosis", "setting": "[5]; 10 g D-BHB with palatability agent", "value": "≤ 45", "unit": "min"}, {"measurement": "Blood ketone level after administration", "setting": "[5]; 10 g D-BHB with palatability agent, test subject rising from 0.2 mmol/L", "value": 1.8, "unit": "mmol/L"}, {"measurement": "Blood ketone level after administration", "setting": "[5]; 10 g D-BHB with palatability agent, test subject rising from 0.6 mmol/L", "value": 1.9, "unit": "mmol/L"}, {"measurement": "Blood ketone level after administration", "setting": "[5]; 15 g D-BHB with palatability agent, rise from 0.1 mmol/L", "value": 2.7, "unit": "mmol/L"}]}
{"smiles": "C[C@@H](O)CCOC(=O)C[C@@H](C)O", "note": "[ketone ester, (R)-3-hydroxybutyl (R)-3-hydroxybutyrate]", "values": [{"measurement": "Ketone increase (blood level)", "setting": "[6]", "value": "higher ketone level response"}]}
